# Experiments:
# [1] = Thiol reactivity: substitution reaction of the conjugation agent with MESNA, followed by HPLC; conditions: for krel (MESNA): Table 2, water soluble conjugation agents, determined as for Table 1
# Method: (§1) The measures of thiol reactivities, thiol chemoselectivities, and aqueous stabilities were determined by the rate constants for the corresponding processes, i.e., relative rate constants for reaction with thiol-containing groups (thiol reactivity), the ratio of thiol to amine rate constants (chemoselectivity for thiol-containing groups), and the rate constant for decomposition of the non-bonded conjugation agent in an aqueous environment (aqueous stability). Equations used in the interpretation of kinetic experiments may be found in J. H. Espenson, Chemical Kinetics and Reaction Mechanisms; McGraw-Hill: New York, 1981.
# For the reactivity measurements, […] (MESNA) was used as the thiol-containing target, and lysine (Lys) was used as the amine target. The relevant reaction sequences are shown below, where LG is a leaving group, such as a halide, or alternatively a leaving group of the invention (Sx—Rs), such as an N-ethylmercaptotetrazolyl (EMT) group. All reactions were carried out at standard temperature and pressure. [drawing 20]
# (§2) The general structure of the conjugation agents used in Example 1 is shown below in formula V, and details of the structure for each conjugation agent are provided in Table 1. […] The selectivity is the ratio of krel(MESNA)/krel(Lys). The lifetime (τ) of a conjugation agent was measured as the time required for loss of about 66% of the starting amount in the solution of 80% phosphate buffer (pH 7)/20% acetonitrile. […] The progress of the reactions was followed by high performance liquid chromatography (HPLC) for up to 1 week. For lifetimes longer than about one week, the values were estimated based on the observed extent of decomposition, where possible. Conjugates labeled “I” are inventive; those labeled “C” are comparative. [drawing 21]
# (§3) The hydrolytic stability data was determined as the lifetime (r) as defined above, but in neutral (pH 7) aqueous phosphate buffer. Formulas for comparative conjugation agents C4-C10, and inventive conjugation agents I2-I6, are shown below. [drawing 22] [drawing 23]
# [2] = Aqueous stability: lifetime of the non-bonded conjugation agent (hydrolysis), followed by HPLC; format: physicochemical; conditions: Table 2, neutral (pH 7) aqueous phosphate buffer, time for loss of about 66%
# Method: as §1, §2
# Selectivity values were generated using the lowest detection limit of the equipment as the value of krel(Lys).
# as §3
# [3] = Transamination of I7 with a lysine amide; conditions: ambient temperature, pH 5.65
# Source text: Inventive conjugation agent I7 is an example of a conjugation agent designed to sequentially link a substrate containing amine groups, such as a support coated with gelatin, to a target containing thiol groups. [drawing 24] I7 was formed by conversion of the carboxylic acid functionality in I5 into a sulfosuccinate ester via standard procedures shown below in Example 3. This provided a functional group that was reactive towards amine groups. Near quantitative reaction of I7 with a corresponding lysine amide was conducted under transamination conditions (ambient temperature, pH 5.65, bimolecular rate constant for transamination, kbi=3.3 M^−1min^−1). This reaction was carried out under mildly acidic conditions to minimize the known competing hydrolysis of the sulfosuccinate ester. The resultant conjugate was called I8.
compound,measurement,setting,value
"C=CS(=O)(=O)CS(=O)(=O)C=C [C9, bis(vinylsulfonyl)methane, reference compound]",krel (MESNA),[1],0.7
same,Lifetime,[2],0.75 days
"CCN1C(=O)C=CC1=O [C10, N-ethylmaleimide, reference compound]",krel (MESNA),[1],24.3
same,Lifetime,[2],1 days
CCn1nnnc1Sc1cc(C(=O)NCCC(=O)O)c([N+](=O)[O-])cc1[N+](=O)[O-] [I3],krel (MESNA),[1],0.1
CCn1nnnc1Sc1c(C(=O)NCCC(=O)O)cc([N+](=O)[O-])cc1[N+](=O)[O-] [I4],krel (MESNA),[1],0.4
same,Reactivity towards thiol-containing groups relative to C6,[1]; Table 2 data,100 times
CCn1nnnc1Sc1c([N+](=O)[O-])cc(C(=O)NCCC(=O)O)cc1[N+](=O)[O-] [I5],krel (MESNA),[1],1.0
same,"krel(thiol, I5)/krel(thiol, 12)",[1]; ratio of Table 2 krel values,about 125
CCn1nnnc1Sc1cc[n+](Cc2ccccc2)cc1 [I6],krel (MESNA),[1],1.9
same,Lifetime,[2]; nd = hydrolysis not detected,24 days
CCn1nnnc1Sc1c([N+](=O)[O-])cc(C(=O)NCCC(=O)ON2C(=O)CC(S(=O)(=O)[O-])C2=O)cc1[N+](=O)[O-].[Na+] (stereo not drawn) [I7],"bimolecular rate constant for transamination, kbi",[3],3.3 M⁻¹ min⁻¹

# From patent publication US20060052421A1, “Conjugation agent” (Eastman Kodak Company, priority 2004, published 2006)
